Test results from patent publication US20240270741A1 (Cogent Biosciences, Inc., priority 2023, published 2024).

biological target: FGFR2 (Homo sapiens, UniProt P21802); assay: FGFR wild type enzyme assay (HTRF KinEASE-TK), FGFR2; settings: Enz FGFR2 (nM), FGFR2 wild type enzyme assay
Sequence (P21802 399-821 limits assumed): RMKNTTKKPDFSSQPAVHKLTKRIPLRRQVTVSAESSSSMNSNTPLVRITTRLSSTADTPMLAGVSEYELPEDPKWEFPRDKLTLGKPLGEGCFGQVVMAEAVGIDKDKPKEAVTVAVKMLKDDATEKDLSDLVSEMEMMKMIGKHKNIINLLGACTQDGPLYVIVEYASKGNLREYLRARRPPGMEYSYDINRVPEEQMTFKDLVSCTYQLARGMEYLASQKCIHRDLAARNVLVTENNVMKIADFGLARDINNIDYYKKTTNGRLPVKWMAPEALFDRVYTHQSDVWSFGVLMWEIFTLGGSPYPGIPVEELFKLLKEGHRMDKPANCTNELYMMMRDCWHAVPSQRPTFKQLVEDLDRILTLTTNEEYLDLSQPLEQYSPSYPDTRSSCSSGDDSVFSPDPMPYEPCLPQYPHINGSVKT

SMILES	IC50
N#Cc1cnn2cc(-c3ccc(N4C[C@H](O)[C@@H](O)C4)nc3)cc(Sc3ncccc3F)c12 [Example 654, 6-(6-((3S,4S)-3,4-dihydroxypyrrolidin-1-yl)pyridin-3-yl)-4-((3-fluoropyridin-2-yl)thio)pyrazolo[1,5-a]pyridine-3-carbonitrile]	3 nM
N#Cc1cnn2cc(-c3ccc(N4C[C@@H](O)[C@H](O)C4)nc3)cc(Sc3ncccc3F)c12 [Example 655, 6-(6-((3R,4R)-3,4-dihydroxypyrrolidin-1-yl)pyridin-3-yl)-4-((3-fluoropyridin-2-yl)thio)pyrazolo[1,5-a]pyridine-3-carbonitrile]	3 nM
CN1CCN(c2ccc(-c3cc(Sc4ncccc4F)c4c(C#N)cnn4c3)cn2)CC1=O [Example 656, 4-((3-fluoropyridin-2-yl)thio)-6-(6-(4-methyl-3-oxopiperazin-1-yl)pyridin-3-yl)pyrazolo[1,5-a]pyridine-3-carbonitrile]	2 nM
CN=S1(=O)CCC(n2cc(-c3cc(Sc4ccc(F)cc4C#N)c4c(C#N)cnn4c3)cn2)CC1 (stereo not drawn) [Example 658, 4-((2-cyano-4-fluorophenyl)thio)-6-(1-(1-(methylimino)-1-oxidohexahydro-1l6-thiopyran-4-yl)-1H-pyrazol-4-yl)pyrazolo[1,5-a]pyridine-3-carbonitrile]	1.5 nM
N#Cc1cnn2cc(-c3ccc(N4C[C@@H](O)[C@@H](O)C4)nc3)cc(Sc3ncccc3F)c12 [Example 661, 6-(6-((3R,4S)-3,4-dihydroxypyrrolidin-1-yl)pyridin-3-yl)-4-((3-fluoropyridin-2-yl)thio)pyrazolo[1,5-a]pyridine-3-carbonitrile]	2 nM
N#Cc1cnn2cc(-c3ccc(N4CCNC(=O)C4)nc3)cc(Sc3ncccc3F)c12 [Example 662, 4-((3-fluoropyridin-2-yl)thio)-6-(6-(3-oxopiperazin-1-yl)pyridin-3-yl)pyrazolo[1,5-a]pyridine-3-carbonitrile]	2 nM
Cc1c(-c2cc(Sc3ccc(F)cc3C#N)c3c(C#N)cnn3c2)cnn1C1CCOCC1 [Example 666, 4-((2-cyano-4-fluorophenyl)thio)-6-(5-methyl-1-(tetrahydro-2H-pyran-4-yl)-1H-pyrazol-4-y)pyrazolo[1,5-a]pyridine-3-carbonitrile]	0.6 nM
N#Cc1ccccc1Sc1cc(-c2cnn(CC[C@H](O)CO)c2)cn2ncc(C#N)c12 [Example 668, (S)-4-((2-cyanophenyl)thio)-6-(1-(3,4-dihydroxybutyl)-1H-pyrazol-4-yl)pyrazolo[1,5-a]pyridine-3-carbonitrile]	0.4 nM
CN(CCO)C(=O)Cn1cc(-c2cc(Sc3ccccc3C#N)c3c(C#N)cnn3c2)cn1 [Example 669, 2-(4-(3-cyano-4-((2-cyanophenyl)thio)pyrazolo [1,5-a]pyridin-6-yl)-1H-pyrazol-1-yl)-N-(2-hydroxyethyl)-N-methylacetamide]	1 nM
CN(C)C(=O)CCn1cc(-c2cc(Sc3ccccc3C#N)c3c(C#N)cnn3c2)cn1 [Example 671, 3-(4-(3-cyano-4-((2-cyanophenyl)thio)pyrazolo [1,5-a]pyridin-6-yl)-1H-pyrazol-1-yl)-N,N-dimethylpropanamide]	0.5 nM
CNC(=O)CCn1cc(-c2cc(Sc3ccccc3C#N)c3c(C#N)cnn3c2)cn1 [Example 672, 3-(4-(3-cyano-4-((2-cyanophenyl)thio)pyrazolo [1,5-a]pyridin-6-yl)-1H-pyazol-1-yl)-N-methylpropanamide]	1 nM
Cc1c(-c2cc(Sc3ccc(F)cc3C#N)c3c(C#N)cnn3c2)cnn1CC[C@@H](O)CO [Example 676, (R)-4-((2-cyano-4-fluorophenyl)thio)-6-(1-(3,4-dihydroxybutyl)-5-methyl-1H-pyrazol-4-yl)pyrazolo[1,5-a]pyridine-3-carbonitrile]	3 nM
C[C@H](O)CN1CC[C@H](n2cc(-c3cc(Sc4ccccc4C#N)c4c(C#N)cnn4c3)cn2)C1 [Example 677, 4-((2-cyanophenyl)thio)-6-(1-((S)-1-((S)-2-hydroxypropyl)pyrrolidin-3-yl)-1H-pyrazol-4-y)pyrazolo[1,5-a]pyridine-3-carbonitrile]	0.3 nM
C[C@@H](O)CN1CC[C@H](n2cc(-c3cc(Sc4ccccc4C#N)c4c(C#N)cnn4c3)cn2)C1 [Example 678, 4-((2-cyanophenyl)thio)-6-(1-((S)-1-((R)-2-hydroxypropyl)pyrrolidin-3-yl)-1H-pyrazol-4-yl)pyrazolo[1,5-a]pyridine-3-carbonitrile]	0.4 nM
Cc1c(-c2cc(Sc3ccc(F)cc3C#N)c3c(C#N)cnn3c2)cnn1[C@H]1CC[C@H](OP(=O)(O)O)CC1 [Example 679, sodium (1r,4r)-4-(4-(3-cyano-4-((2-cyano-4-fluorophenyl)thio)pyrazolo [1,5-a]pyridin-6-yl)-5-methyl-1H-pyrazol-1-yl)cyclohexyl phosphate]	1.6 nM
Cc1c(-c2cc(Sc3ccc(F)cc3C#N)c3c(C#N)cnn3c2)cnn1[C@H]1CC[C@H](OC(=O)[C@@H](N)C(C)C)CC1 [Example 680, (1r,4S)-4-(4-(3-cyano-4-((2-cyano-4-fluorophenyl)thio)pyrazolo [1,5-a]pyridin-6-yl)-5-methyl-1H-pyrazol-1-yl)cyclohexyl L-valinate]	1 nM

Second part, the compound after the results:

IC50	SMILES
3 nM	N#Cc1cc(F)ccc1Sc1cc(-c2ccc(N3CCNC(=O)C3)nc2)cn2ncc(C#N)c12 [Example 657, 4-((2-cyano-4-fluorophenyl)thio)-6-(6-(3-oxopiperazin-1-yl)pyridin-3-yl)pyrazolo[1,5-a]pyridine-3-carbonitrile]
0.3 nM	CC(=O)N1CCC(N(C)c2ccc(-c3cc(Sc4ccccc4C#N)c4c(C#N)cnn4c3)cn2)CC1 [Example 659, 6-(6-((1-acetylpiperidin-4-yl)(methyl)amino)pyridin-3-yl)-4-((2-cyanophenyl)thio)pyrazolo [1,5-a]pyridine-3-carbonitrile]
1 nM	N#Cc1ccccc1Sc1cc(-c2ccc(N3C[C@@H](O)[C@@H](O)C3)nc2)cn2ncc(C#N)c12 [Example 660, 4-((2-cyanophenyl)thio)-6-(6-((3R,4S)-3,4-dihydroxypyrrolidin-1-yl)pyridin-3-yl)pyrazolo[1,5-a]pyridine-3-carbonitrile]
2 nM	CC(=O)NCCn1cc(-c2cc(Sc3ccccc3C#N)c3c(C#N)cnn3c2)cn1 [Example 663, N-(2-(4-(3-cyano-4-((2-cyanophenyl)thio)pyrazolo [1,5-a]pyridin-6-yl)-1H-pyrazol-1-yl)ethyl)acetamide]
0.2 nM	CC(=O)N1CCN(c2ccc(-c3cc(Sc4ccccc4C#N)c4c(C#N)cnn4c3)cn2)CC1 [Example 664, 6-(6-(4-acetylpiperazin-1-yl)pyridin-3-yl)-4-((2-cyanophenyl)thio)pyrazolo [1,5-a]pyridine-3-carbonitrile]
1 nM	C[C@@H]1CN(c2ccc(-c3cc(Sc4ccccc4C#N)c4c(C#N)cnn4c3)cn2)C[C@H](C)O1 [Example 665, 4-((2-cyanophenyl)thio)-6-(6-((2S,6R)-2,6-dimethylmorpholino)pyridin-3-yl)pyrazolo[1,5-a]pyridine-3-carbonitrile]
1 nM	CN1C[C@H](n2cc(-c3cc(Sc4ccccc4C#N)c4c(C#N)cnn4c3)cn2)CCC1=O [Example 667, (R)-4-((2-cyanophenyl)thio)-6-(1-(1-methyl-6-oxopiperidin-3-yl)-1H-pyrazol-4-yl)pyrazolo[1,5-a]pyridine-3-carbonitrile]
1 nM	N#Cc1ccccc1Sc1cc(-c2cnn(CC(=O)N3CCNCC3)c2)cn2ncc(C#N)c12 [Example 670, 4-((2-cyanophenyl)thio)-6-(1-(2-oxo-2-(piperazin-1-yl)ethyl)-1H-pyrazol-4-yl)pyrazolo[1,5-a]pryridine-3-carbonitrile]
0.2 nM	N#Cc1ccccc1Sc1cc(-c2cnn(CCC(=O)N3CC[C@@H](O)C3)c2)cn2ncc(C#N)c12 [Example 673, (R)-4-((2-cyanophenyl)thio)-6-(1-(3-(3-hydroxypyrrolidin-1-yl)-3-oxopropyl)-1H-pyrazol-4-yl)pyrazolo[1,5-a]pyridine-3-carbonitrile]
1 nM	N#Cc1ccccc1Sc1cc(-c2cnn(CCC(=O)N3CC[C@H](O)C3)c2)cn2ncc(C#N)c12 [Example 674, (S)-4-((2-cyanophenyl)thio)-6-(1-(3-(3-hydroxypyrrolidin-1-yl)-3-oxopropyl)-1H-pyrazol-4-yl)pyrazolo[1,5-a]pyridine-3-carbonitrile]
0.6 nM	N#Cc1ccccc1Sc1cc(-c2cnn(CCC(=O)N3CCNCC3)c2)cn2ncc(C#N)c12 [Example 675, 4-((2-cyanophenyl)thio)-6-(1-(3-oxo-3-(piperazin-1-yl)propyl)-1H-pyrazol-4-yl)pyrazolo[1,5-a]pyridine-3-carbonitrile]
